Assay results reported in patent US7148013B2, “Complex of Hepatitis B virus polymerase with p11 and method for controlling movement of the complex in HepG2 cell” (Korea Institute of Science and Technology, priority 2002, dated 2006).

Tested on: HBVPol/p11 complex
Test: Immunofluorescent experiment and confocal microscopy: intracellular location of HBVPol/p11 complex in HepG2 cells co-delivered with HBVPol and p11
Assay type: cell-based, human
Settings: HepG2 cell co-delivered with HBVPol and p11
Protocol: HepG2 was grown on a chamber slide charged with DMEM (supplemented with 0.1 mM non-essential amino acids and 10% FBS, culturing condition: 37° C., moisturized with a mixture of 95:5% (v/v) air and CO2), and Effectene (Qiagen) was used to deliver genes into the cell. Cells treated with EGTA and to which the gene was delivered, were washed with PBS and fixed with 100% methanol at −20° C. for 15 minutes. The slide was treated with a blocking solution (1% goat serum/PBS) at room temperature for 30 minutes and then reacted with anti-Myc rabbit (1:200) antibody against p11, anti-Flag rabbit (1:200) antibody against HBVPol, or anti-PML mouse (1:200) antibody at 4° C. for one day.
After reaction, the cells were reacted with anti-rabbit or anti-mouse goat secondary antibody, to which rhodamine or fluorscein isothiocyanate was attached, at 37° C. and then a coverslip was attached thereto with mounting solution. […]

Row | Structure (SMILES) | intracellular location of HBVPol and p11 (30 uM for 24 hours, FIG. 5b) | intracellular location of HBVPol and p11 (0.5 mM for 48 hours, FIG. 5a)
1 | CC(C)[C@@H]1NC(=O)[C@H](C)OC(=O)[C@@H](C(C)C)NC(=O)[C@@H](C(C)C)OC(=O)[C@H](C(C)C)NC(=O)[C@H](C)OC(=O)[C@@H](C(C)C)NC(=O)[C@@H](C(C)C)OC(=O)[C@H](C(C)C)NC(=O)[C@H](C)OC(=O)[C@@H](C(C)C)NC(=O)[C@@H](C(C)C)OC1=O [valinomycine] | HBVPol and p11 remained in the cytoplasm of the cell | 
2 | O=C(O)CN(CCOCCOCCN(CC(=O)O)CC(=O)O)CC(=O)O [EGTA] |  | most of HBVPol and p11 migrated into the nucleus of the cell
